Columns and labels:
[1] = molecular target: Glutamate receptor ionotropic, AMPA (Rattus norvegicus) (UniProt P19491+P19492+P19493+P19490); test: Inhibition of KA induced currents associated with activation of the AMPA subtype of glutamate receptors in cerebellar neurons at a concentration of 10 uM; format: protein-complex assay
Mus musculus [2] = test: In vivo anticonvulsant activity in mice using maximal electroshock (MES) assay; value ranges from 35-50 mg/kg; format: functional
Rattus norvegicus = test: In vivo anticonvulsant activity in rats using maximal electroshock (MES) assay; value ranges from 35-50 mg/kg; format: functional
Mus musculus [3] = test: In vivo anticonvulsant activity in mice using maximal electroshock (MES) assay; format: functional
Mus musculus [4] = species: Mus musculus; test: Reduced sedation using rotarod test in mouse; format: functional

CCCNC(=O)N1N=C(c2ccc(N)cc2)c2cc3c(cc2C1C)OCO3 (stereo unspecified)
inhibition [1]: 58% | ED50 (Mus musculus [2]): 35 mg/kg | ED50 (Rattus norvegicus): 35 mg/kg

CCCNC(=O)N1N=C(c2ccc(N)cc2)c2cc(F)ccc2C1C (stereo unspecified)
inhibition [1]: 55%

CCCCNC(=O)N1N=C(c2ccc(N)cc2)c2cc3c(cc2C1C)OCO3 (stereo unspecified)
inhibition [1]: 62% | ED50 (Mus musculus [2]): 35 mg/kg | ED50 (Rattus norvegicus): 35 mg/kg

CCCNC(=O)N1N=C(c2ccc(N)cc2)c2cc(OC)ccc2C1C (stereo unspecified)
inhibition [1]: 52% | ED50 (Mus musculus [3]): 52 mg/kg | ED50 (Mus musculus [4]): 150 mg/kg

CCCCNC(=O)N1N=C(c2ccc(N)cc2)c2cc(OC)ccc2C1C (stereo unspecified)
inhibition [1]: 50%

From ChEMBL document CHEMBL1132505, “Allosteric modulators of the AMPA receptor: novel 6-substituted dihydrophthalazines” (1999)
